Source: a melting point compilation (Tetko et al.; mined from patent text by program, amines drawn as free bases though some values may be those of a salt)

SMILES | melting point [°C]
O=C(O)CNC1CCc2ccc(O)cc21 (centres undefined) | 260
CCCCc1nc(Cl)c(C(=O)O)n1Cc1ccc(-c2ccccc2I)cc1 | 175
Cc1nc(C)n(-c2cc(C)c3[nH]c(=O)ccc3c2)c1Br | 273
O=[N+]([O-])c1ccc(C2OCCO2)cc1 | 88 to 92
CCn1c(=O)c2[nH]c(/C=C/c3ccc(-c4ccccc4)cc3)nc2n(CC)c1=O | > 270
COc1ccc(-c2cc(=O)n(CCC(=O)NCc3ccccc3)nc2-c2ccc(OC)cc2)cc1 | 135 to 137
OC(CON=C1CCCc2sccc21)CN1CCCC1 (centres undefined) | 136
COc1ccccc1N1CCN([C@@H]2Cc3c(cccc3OC)C[C@H]2O)CC1 (relative stereo) | 138 to 141
CCC(=O)N1CCC(NC(=O)Nc2ccc(OC(F)(F)F)cc2)CC1 | 195 to 196
c1cc(-c2nccs2)cc(-n2cnc3cc(-c4ccon4)ccc32)c1 | 157 to 158
NC(=O)N1c2ccccc2CC(=NO)c2ccccc21 | 230 to 232
O=C1C2CC2C(=O)N1CCC1=CCCCC1 (centres undefined) | 60 to 61
CCc1cc(C(=O)O)ccc1O | 134 to 136
CCOCc1nc(N)c(N)c(=O)[nH]1 | 173 to 175
COP(=O)(CC(O)c1c(C(C)C)nn(-c2ccccc2)c1-c1ccc(F)cc1)OC (centres undefined) | 126 to 128
CCOC(=O)c1c(C)cc2ncn(-c3ccccc3)c(=O)c2c1C | 102 to 103
N#Cc1ccc(-c2cn(-c3ccc(C#N)cc3)c(SCc3cccnc3)n2)cc1 | 218 to 225
COc1cccc2c1CN(Nc1ccncc1)C2 | 144 to 146
CC1(C)CCC(C)(C)c2cc(NC(=O)c3ccc(CO)cc3)ccc21 | 161 to 162
Cc1cn(-c2cccc(C(=O)CC(=O)Nc3cc(C#Cc4ccc(F)cc4)ccc3NC(=O)OC(C)(C)C)c2)cn1 | 166
CC(C)(Sc1nnnn1-c1ccccc1)c1ccc([N+](=O)[O-])cc1 | 122
Cc1cc2c(-c3ccccc3)c(NC(=O)NCc3ccccc3N)n(C)c(=O)c2cc1C | 218
CCCN1C(=O)CN(c2ccccc2)C1=O | 97
CCCn1c(=O)nc(SC)c2c1ncn2COCc1ccccc1 | 167 to 168
CS(=O)(=O)c1ccc(Nc2cc(N3CCOCC3)nc(-c3ccccc3)n2)cc1 | 238 to 240

SMILES | melting point [°C]
CC(=O)NC[C@H]1CN(c2cc(F)c(N3CCC(n4nnc(N5CCN(C(C)=O)CC5)n4)CC3)c(F)c2)C(=O)O1 | 200 to 205
CC(C)(C)OC(=O)Nc1cc(N2CCS(=O)(=O)CC2)c(C#Cc2ccccc2)cc1[N+](=O)[O-] | 217 to 221
Cn1c2ccccc2c(=O)c2c(Cl)cccc21 | 183 to 186
CCOC(=O)c1ccc(-n2nc(-c3ccccc3O)nc2-c2ccccc2O)cc1 | 148 to 149
CCOC(=O)c1ccc(-c2cnc3c(c2)N(Cc2c(Cl)cccc2Cl)C(=O)CN3)cc1 | 226
O=C1CC(/C=C/c2ccccc2)Nc2ccccc2N1Cc1ccccc1 (centres undefined) | 186 to 187
CC=CC(=O)N(CCCCC(=O)O)C(c1ccccc1)c1ccccc1 | 88 to 89
c1cncc(C2CCc3ccccc3O2)c1 (centres undefined) | 59 to 60
CCOC(=O)c1nc(-c2cccnc2)[nH]c1N=NN(C)C | 125
O=C(Nc1nnn[nH]1)c1ccccc1O | 264 to 266
O=[N+]([O-])c1cnn(-c2c(Cl)cc(Cl)cc2Cl)c1Cl | 78 to 84
CC(C)C[C@H](NC(=O)OCc1ccccc1)C(=O)N[C@@H](Cc1ccccc1)C(=O)CN1CCN(C)CC1 | 99 to 100
NS(=O)(=O)c1ccc(CNC(=O)c2ccccc2SSc2ccccc2C(=O)NCc2ccc(S(N)(=O)=O)cc2)cc1 | 267 to 269
CCOC(=O)CCC(NC(=O)c1ccc(NC2CCc3cc4nc(C)n(COC(=O)C(C)(C)C)c(=O)c4cc32)cc1)C(=O)OCC (mixture of isomers) | 156
CCCCNS(=O)(=O)CC(O)C(O)C(CC1CCCCC1)NC(=O)c1ccc(O)nc1 (centres undefined) | 247 to 252
CCOP(=O)(NCC(=O)OCc1ccccc1)C1CC(c2ccccc2)=NO1 (centres undefined) | 91 to 103
COC(=O)c1c(OC)ccc([N+](=O)[O-])c1OC | 77 to 78
Cc1cc2c(c(O)c1C=O)C(C)(C)CCC2(C)C | 91 to 92
CC(=O)Nc1ccc2nc3[nH]c(=O)[nH]c3cc2c1 | > 320
CCCCOC1C=CC(=O)N1S(=O)(=O)c1ccccc1 (centres undefined) | 66 to 67
O=C(O)COCC(=O)NCCCCCCCNC(=O)OCc1ccccc1 | 74 to 74.5
CN1CCN2c3ccc([N+](=O)[O-])cc3C(c3cccs3)=NCC2C1 (centres undefined) | 174 to 175
C=CS(=O)(=O)CC(=O)N1CCN(C(=O)CS(=O)(=O)C=C)CC1 | 215
CCCc1nc2c(N)nc3c(c2n1CCCCC(=O)N1CCOCC1)CCCC3 | 158 to 160
NS(=O)(=O)c1cc2ccc(OCC3CO3)cc2s1 (centres undefined) | 148 to 149

SMILES | melting point [°C]
N#Cc1ccc(O[C@H]2CC[C@H](NC(=O)Nc3ccc(OC(F)(F)F)cc3)CC2)cc1 | 186 to 189
CC(C)NCC(O)c1ccc2c(c1)OCO2 (centres undefined) | 117 to 118
COc1cc(OC)c(C2=NC(NC(=O)Nc3ccccc3C)C(=O)N(C)c3ccccc32)c(OC)c1 (centres undefined) | 50
C=CC[C@@H]1C[C@@H](COc2ccc(CCCCNC(=O)OC(C)(C)C)cc2)N(CCc2ccc3ccccc3c2)C1=O | 79 to 83
CC(C)COC(=O)c1ccc2nc(N)n(S(=O)(=O)N(C)C)c2c1 | 197 to 198
COc1cc(OC)cc(C(=O)N2CCc3cc(OCc4ccccc4)c(OC)cc3C2=O)c1 | 180 to 181
Nc1c(-c2cc(Cl)ccc2O)c2c(Cl)c(Cl)ccc2[nH]c1=O | 263 to 265
Nc1ccc(S(=O)(=O)C(F)(F)C(F)Cl)cc1Cl (centres undefined) | 98 to 99
CC(C)(C)OC(=O)NCC12CN(c3c(F)cc4c(=O)c(C(=O)O)cn(C5CC5)c4c3Cl)CC1CCO2 (centres undefined) | 111 to 113
CCOC(=O)COc1ccc(Cn2c(-c3ccc(OC)cc3)c(C)c3cc(OCc4ccccc4)ccc32)cc1 | 90 to 96
Cn1c(SC(C)(CO)c2ccccc2)cc2ccccc21 (centres undefined) | 118 to 119
COc1cc(OC)c(OC)cc1C=CC=O | 140
O=C(NCc1ccccn1)C1=C(C(=O)Nc2cc(OC3CCCC3)c(Cl)cc2F)CCCC1 | 144 to 148
CCNc1ccc(C(=O)Nc2ccc3ccc(OC)nc3n2)cc1 | 134
C#Cc1ccnc(-c2ccc(-c3ccccc3C#C)c([N+](=O)[O-])c2)c1 | 144 to 146
Nc1nc(NC2CC2)c2ncn(/C=C3/CC3(CO)CO)c2n1 | 164 to 165
COc1cc(C)cc(OC)c1NC(=O)CNC(=O)OC(C)(C)C | 146
CN1Cc2ccc(OCCCCN3CCN(c4cccc5ccccc45)CC3)nc2NC1=O | 180 to 182
CC(C)(C)C(=NO)C(C)(C)CCCCCCC(C)(C)C(=NO)C(C)(C)C | 203 to 209
CC1(C)CCC(N)=CC1=O | 153 to 154
Cc1cc(NS(=O)(=O)c2cccs2)c2[nH]c(C(=O)NCCSC(c3ccccc3)(c3ccccc3)c3ccccc3)cc2c1 | 214 to 215
OC1CN(Cc2ccccc2)C1 | 64.5 to 65.5
C/C(=C(\C#N)C(=S)/N=C/N(C)C)N1CCCN(c2ccc(Cl)cc2)CC1 | 259 to 264
CCOC(=O)c1cnc2nn(C)cc2c1NC | 178 to 180
CCCCc1nc2c(N)nc3ccc(OCc4ccccc4)cc3c2n1CCCCNS(C)(=O)=O | 178 to 182

SMILES | melting point [°C]
CSc1nnc(-c2ccc3occ(-c4cc(F)ccc4F)c3c2)o1 | 158 to 159
CCNC(=O)CN(c1c(Cc2c(F)cccc2F)cccc1OC)S(=O)(=O)c1ccc(OC)c(OC)c1 | 180
CC(C)c1c(/C=C/I)c(-c2ccc(F)cc2)nc2ccccc12 | 145 to 147
Cc1c(SCCN2CCc3ccccc3C2)ccnc1CSc1nc2ncccc2[nH]1 | 180
CCc1c2nc(-c3cc(S(C)(=O)=O)ccc3OCC(C)C)[nH]c(=O)c2nn1C1CCN(C)CC1 | 292 to 295
CCN1CCN(Cc2ccc(-c3nc4cc(OC)cc(OC)c4c(=O)[nH]3)cc2)CC1 | 278 to 280
O=C1CCC(N2Cc3c(OCc4ccc5ncccc5c4)cccc3C2=O)C(=O)N1 (centres undefined) | 267 to 269
CCCn1c(=O)c2c(nc(C=Cc3cc(OC)c(OC)c(OC)c3S(=O)(=O)O)n2C)n(CCC)c1=O | 248 to 250
O=c1oc2ccccc2c(O)c1SCCOc1ccccc1 | 120 to 121
CCOC(=O)c1c(C(F)(F)F)nc(C(F)(F)Cl)c(C(=O)OC)c1OCC | 37.5 to 39.5
CCN(CC)c1ccc(C=O)c([N+](=O)[O-])c1 | 75 to 77
CCOC(=O)Cc1ccc2oc3ccccc3c(=O)c2c1 | 97 to 98
O=S1CCON=C1c1nc2ccccc2s1 (centres undefined) | 192 to 195
CN(C(=O)Nc1ccc(OC(F)(F)F)cc1)c1nc(OCC(F)(F)F)cc(OCC(F)(F)F)n1 | 123 to 125
N#Cc1ccc2c(c1)c(C1CCC(=O)CC1)cn2Cc1ccccc1 | 115 to 126
CC(=O)SCC(C)C(=O)N(CC(=O)O)C1CC1 (centres undefined) | 86 to 88
C=C=COc1ccc(-c2ccc(OC=C=C)cc2)cc1 | 135 to 138
CC#CCOc1nsc(-c2ccccc2)n1 | 70.3
CC(=O)C[C@H]1CC[C@H](c2ccc(Cl)cc2)CC1 | 58 to 60
COc1ccc(-c2cc(N3CCCCC3)c(C#N)c3c2-c2ccccc2C3)cc1 | 202 to 204
CCCCN(CCCCO)c1ccc(C=Cc2ccc(C=CC3=C(C#N)C(=C(C#N)C#N)OC3(C)C)s2)c(OCc2ccccc2)c1 | 216 to 217
CC1OC(n2c(Br)nc3cc(Cl)c(Cl)cc32)C(O)C1O (centres undefined) | 85 to 86
COC(=O)NNC(=O)c1cc(OC)c(OC)c(OC)c1 | 145
CNC(=O)CC1CN=C(c2cc3cc(Oc4ccc(S(C)(=O)=O)cn4)cc(OC(COC)COC)c3[nH]2)S1 (centres undefined) | 123 to 125
